The source of these data is patent US20250250264A1, “KIF18A INHIBITOR AND USE THEREOF” (Wuhan Humanwell Innovative Drug Research and Development …, priority 2022, published 2025).

Experiment [1] has as its target recombinant protein KIF18A (kinesin domain: aa 1-467) (Homo sapiens (Human), UniProt Q8NI77). Nature of the experiment: Assay on inhibition of KIF18A enzymatic activity (ADP-Glo). It counts as biochemical. The note with it: KIF18A 80 nM, ATP 80 μM, 3 h at room temperature, ADP-Glo luminescence; read-out: IC50 (μM), inhibitory effects of compounds on KIF18A enzymatic activity. From the text: The recombinant protein KIF18A (kinesin domain: aa 1-467) used in this assay was expressed by the Bac-to-Bac baculovirus expression system from Invitrogen, and the resulting protein was purified for use in this assay (Seki, M. et al. 2003 Nucleic Acids Res.). Quantitative detection of KIF18A enzymatic activity was completed using an ADP-Glo™ kinase assay kit (Promega Inc). Related procedures strictly followed the product instructions, which are briefly described as follows:
The reaction system consisted of a test compound, the recombinant protein KIF18A (aa 1-467), ATP (Promega Inc), and an assay buffer. The test compound was prepared into a 0.5 mM stock solution using DMSO (Sigma Inc) and then serially diluted in DMSO. The assay buffer consisted of an aqueous solution of 15 mM Tris, 10 mM MgCl2 (Sigma Inc), 0.01% Pluronic F-68 (Life Technologies Inc), 1 μM paclitaxel (Cytoskeleton Inc), 30 μg/mL porcine tubulin (Cytoskeleton Inc), and 2% DMSO. The KIF18A protein (final concentration: 80 nM) and the compound at different concentrations (1 μL) were added to the prepared assay buffer (50 μL), and the mixture was incubated at room temperature for 15 min. Then, ATP (final concentration: 80 μM) was added to the reaction mixture, and the resulting mixture was incubated at room temperature for 3 h. After the reaction was completed, 5 μL of the ADP-Glo™ reagent and 2.5 μL of the reaction mixture were added to a 384-well plate (Grenier Inc). The resulting mixture was mixed homogeneously, then sealed by an aluminum foil sealing film, and incubated at room temperature in the dark for 40 min. Finally, 10 μL of the […] was added to each reaction well, and the mixture was incubated at room temperature in the dark for 40 min. After all reactions were completed, the luminescence values of the wells were read on a microplate reader (Molecular Device_SpectraMax Id5), and the inhibition ratios were calculated. The calculation formula for the inhibition rates was as follows: inhibition rate=(1−(compound group−blank group)/(negative control group−blank group))×100%. Then, based on the inhibition rates at different compound concentrations, the IC50 value of the test compound was calculated using the GraphPad Prism 8 software.
For orientation: ADP-Glo turns the ADP formed in a reaction into a luminescent signal.

Another experiment concerns NIH:OVCAR-3 cells. The experiment can be described thus: Assay on inhibition of OVCAR3 tumor cell proliferation (CellTiter-Glo). It counts as cell-based. The note with it: Homo sapiens, OVCAR-3, 72 h, 3 days of drug treatment, read-out: IC50 (μM), inhibitory effects of compounds on tumor cell proliferation. As to the method:
NIH:OVCAR-3 cells (ATCC, Cat No. HTB-161, purchased from Co-Bier) were seeded into a T75 culture flask and cultured in an RPMI 1640 medium containing 20% FBS for 3 days in preparation for subsequent culturing and seeding into a 96-well plate for the cell proliferation assay.
The OVCAR3 cells were seeded at a density of 3000 cells/100 μL/well into the 96-well cell plate, and then the plate was incubated in an incubator (37° C., 5% CO2) for 18 h. On the second day, drug treatment was started. Serially diluted test compound solutions (each drug starting at a concentration of 10 μM, diluted in DMSO, with a dilution ratio of 1:3, and nine gradient points for each drug) or DMSO (negative control) was added to the medium in the plate at 100 μL/well, and a blank group was set up with only medium, but no seeded cell strains. After the drug addition, the plate was incubated in the incubator for another 3 days (37° C., 5% CO2). On the fourth day, plate detection was performed. To each well, 100 μL of CellTiter-Glo reagent (Promega G9243) was added. The plate was shaken for 5 min and then left to stand at room temperature for 5 min. The chemical luminescence signal value of each well was determined using a microplate reader (PerkinElmer EnVision®2104). Cell proliferation inhibition rate=(1−(compound group−blank group)/(DMSO group−blank group))×100%. Then, the IC50 value of each compound was calculated using the GraphPad Prism 8 software.
Background: ATP-based viability assays read luminescence as a measure of living cells.

Chain of recombinant protein KIF18A (kinesin domain: aa 1-467) (Q8NI77 1-467): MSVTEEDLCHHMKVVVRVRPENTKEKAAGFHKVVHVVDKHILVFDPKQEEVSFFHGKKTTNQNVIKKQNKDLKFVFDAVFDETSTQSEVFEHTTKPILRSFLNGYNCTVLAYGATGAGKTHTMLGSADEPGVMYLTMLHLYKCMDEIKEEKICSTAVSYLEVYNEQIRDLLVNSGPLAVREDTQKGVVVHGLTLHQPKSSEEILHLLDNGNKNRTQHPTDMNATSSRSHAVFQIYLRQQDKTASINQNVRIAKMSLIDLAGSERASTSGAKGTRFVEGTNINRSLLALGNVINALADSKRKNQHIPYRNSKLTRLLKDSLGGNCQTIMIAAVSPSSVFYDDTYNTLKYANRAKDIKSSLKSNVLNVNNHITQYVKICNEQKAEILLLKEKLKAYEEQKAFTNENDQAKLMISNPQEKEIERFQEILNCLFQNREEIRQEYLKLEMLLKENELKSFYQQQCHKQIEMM
Chain of recombinant protein KIF18A (kinesin domain: aa 1-467) (P02550 whole entry partner, the tested form may be a part): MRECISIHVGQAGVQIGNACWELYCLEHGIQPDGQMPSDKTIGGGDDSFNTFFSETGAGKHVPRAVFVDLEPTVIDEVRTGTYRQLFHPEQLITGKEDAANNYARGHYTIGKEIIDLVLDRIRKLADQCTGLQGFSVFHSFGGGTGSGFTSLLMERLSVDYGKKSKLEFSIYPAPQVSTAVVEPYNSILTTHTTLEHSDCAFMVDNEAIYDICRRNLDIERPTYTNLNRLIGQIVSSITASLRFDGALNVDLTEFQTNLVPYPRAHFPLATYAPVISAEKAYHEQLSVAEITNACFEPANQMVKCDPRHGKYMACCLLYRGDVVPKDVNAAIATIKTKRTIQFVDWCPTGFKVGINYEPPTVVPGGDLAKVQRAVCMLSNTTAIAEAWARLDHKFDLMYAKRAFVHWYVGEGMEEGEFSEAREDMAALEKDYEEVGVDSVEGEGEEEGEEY
Chain of recombinant protein KIF18A (kinesin domain: aa 1-467) (P02554 whole entry partner, the tested form may be a part): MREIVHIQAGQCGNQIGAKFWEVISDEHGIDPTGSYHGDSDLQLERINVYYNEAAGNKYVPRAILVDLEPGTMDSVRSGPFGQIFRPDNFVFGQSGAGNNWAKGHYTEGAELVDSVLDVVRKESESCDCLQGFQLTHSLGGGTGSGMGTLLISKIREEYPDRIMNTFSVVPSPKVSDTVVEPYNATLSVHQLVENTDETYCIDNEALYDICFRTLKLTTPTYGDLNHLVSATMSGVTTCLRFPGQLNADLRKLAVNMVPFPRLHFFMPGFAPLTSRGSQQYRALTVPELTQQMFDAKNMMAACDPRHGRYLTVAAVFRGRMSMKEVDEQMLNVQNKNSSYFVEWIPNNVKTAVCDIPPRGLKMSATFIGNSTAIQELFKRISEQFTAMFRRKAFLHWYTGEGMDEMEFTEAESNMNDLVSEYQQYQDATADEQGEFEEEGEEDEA

Take `Cc1cc(-c2cnn(-c3ccc(NS(=O)(=O)CCO)cc3N3CCC4(CC3)CC4)c2)nc(N2CC3C(C2)C3(F)F)n1` (stereo not drawn) [Example I-113, N-(4-(4-(2-(6,6-Difluoro-3-azabicyclo[3.1.0]hexan-3-yl)-6-methylpyrimidin-4-yl)-1H-pyrazol-1-yl)-3-(6-azaspiro[2.5]octan-6-yl)phenyl)-2-hydroxyethane-1-sulfonamide]: the IC50 in experiment [1] came out at 0.007 µM; in the experiment with NIH:OVCAR-3 cells it was 0.051 µM.
The like results for `Cc1cc(-c2cnn(-c3ccc(NS(=O)(=O)CCO)cc3N3CCC4(CC3)CC4)c2)nc(N2CCC(F)CC2)n1` [Example I-114, N-(4-(4-(2-(4-Fluoropiperidin-1-yl)-6-methylpyrimidin-4-yl)-1H-pyrazol-1-yl)-3-(6-azaspiro[2.5]octan-6-yl)phenyl)-2-hydroxyethane-1-sulfonamide] were, in that order, 0.007 µM and 0.076 µM.
As to `Cc1cc(-c2cnn(-c3ccc(NS(=O)(=O)CCO)cc3N3CCC4(CC3)CC4)c2)nc(OCCC(F)(F)F)n1` [Example I-115, N-(4-(4-(6-Methyl-2-(3,3,3-trifluoropropoxy)pyrimidin-4-yl)-1H-pyrazol-1-yl)-3-(6-azaspiro[2.5]octan-6-yl)phenyl)-2-hydroxyethane-1-sulfonamide], the results for the IC50 (in experiment [1]; in the experiment with NIH:OVCAR-3 cells) were 0.005 µM and 0.167 µM, respectively.
On to `Cc1cc(-c2cnn(-c3ccc(NS(=O)(=O)CCO)cc3N3CCC4(CC3)CC4)c2)nc(N2CCCC2)n1` [Example I-116, N-(4-(4-(6-Methyl-2-(pyrrolidin-1-yl)pyrimidin-4-yl)-1H-pyrazol-1-yl)-3-(6-azaspiro[2.5]octan-6-yl)phenyl)-2-hydroxyethane-1-sulfonamide], for which the IC50 in experiment [1] stood at 0.013 µM; with NIH:OVCAR-3 cells, 0.389 µM.
`Cc1cc(-c2cnn(-c3ccc(NS(=O)(=O)CCO)cc3N3CCC(C)(F)CC3)c2)nc(N2CCC(F)(F)CC2)n1` [Example I-117, N-(4-(4-(2-(4,4-Difluoropiperidin-1-yl)-6-methylpyrimidin-4-yl)-1H-pyrazol-1-yl)-3-(4-fluoro-4-methylpiperidin-1-yl)phenyl)-2-hydroxyethane-1-sulfonamide]: the IC50 in experiment [1] stood at 0.009 µM; with NIH:OVCAR-3 cells, 0.365 µM.
Consider `Cc1cc(-c2cnn(-c3ccc(NS(=O)(=O)CCO)cc3N3CCC4(CC3)CC4)c2)nc(N2CCCC(F)(F)C2)n1` [Example I-118, N-(4-(4-(2-(3,3-Difluoropiperidin-1-yl)-6-methylpyrimidin-4-yl)-1H-pyrazol-1-yl)-3-(6-azaspiro[2.5]octan-6-yl)phenyl)-2-hydroxyethane-1-sulfonamide], for which the IC50 turned out to be 0.002 µM in experiment [1] and 0.184 µM with NIH:OVCAR-3 cells.
With `O=c1ccc(-c2cnn(-c3ccc(NS(=O)(=O)CCO)cc3N3CCC4(CC3)CC4)c2)nn1C1CC(F)(F)C1` [Example I-121, N-(4-(4-(1-(3,3-Difluorocyclobutyl)-6-oxo-1,6-dihydropyridazin-3-yl)-1H-pyrazol-1-yl)-3-(6-azaspiro[2.5]octan-6-yl)phenyl)-2-hydroxyethane-1-sulfonamide], the IC50 in experiment [1] turned out to be 0.003 µM; in the experiment on NIH:OVCAR-3 cells it was 0.056 µM.
On to `O=S(=O)(CCO)Nc1ccc(-n2cc(-c3nc(N4CCC(F)(F)CC4)ncc3F)cn2)c(N2CCC3(CC2)CC3)c1` [Example I-129, N-(4-(4-(2-(4,4-Difluoropiperidin-1-yl)-5-fluoropyrimidin-4-yl)-1H-pyrazol-1-yl)-3-(6-azaspiro[2.5]octan-6-yl)phenyl)-2-hydroxyethane-1-sulfonamide], for which the IC50 in experiment [1] stood at 0.009 µM; with NIH:OVCAR-3 cells, 0.148 µM.
The like results for `O=S(=O)(CCO)Nc1ccc(-n2cc(-c3ncnc(N4CCC(F)(F)CC4)n3)cn2)c(N2CCC3(CC2)CC3)c1` [Example I-130, N-(4-(4-(4-(4,4-Difluoropiperidin-1-yl)-1,3,5-triazin-2-yl)-1H-pyrazol-1-yl)-3-(6-azaspiro [2.5]octan-6-yl)phenyl)-2-hydroxyethanesulfonamide] were, in that order, 0.009 µM and 0.142 µM.
